Results published in patent publication US20240261418A1, “SOS1 DEGRADING AGENT AND PREPARATION METHOD THEREFOR AND APPLICATION THEREOF” (SHANGHAI LEADINGTAC PHARMACEUTICAL CO. LTD., priority 2021, published 2024).

Molecular target: T1, SOS1 protein (Homo sapiens, UniProt Q07889)
T1 sequence (Q07889 1-1333): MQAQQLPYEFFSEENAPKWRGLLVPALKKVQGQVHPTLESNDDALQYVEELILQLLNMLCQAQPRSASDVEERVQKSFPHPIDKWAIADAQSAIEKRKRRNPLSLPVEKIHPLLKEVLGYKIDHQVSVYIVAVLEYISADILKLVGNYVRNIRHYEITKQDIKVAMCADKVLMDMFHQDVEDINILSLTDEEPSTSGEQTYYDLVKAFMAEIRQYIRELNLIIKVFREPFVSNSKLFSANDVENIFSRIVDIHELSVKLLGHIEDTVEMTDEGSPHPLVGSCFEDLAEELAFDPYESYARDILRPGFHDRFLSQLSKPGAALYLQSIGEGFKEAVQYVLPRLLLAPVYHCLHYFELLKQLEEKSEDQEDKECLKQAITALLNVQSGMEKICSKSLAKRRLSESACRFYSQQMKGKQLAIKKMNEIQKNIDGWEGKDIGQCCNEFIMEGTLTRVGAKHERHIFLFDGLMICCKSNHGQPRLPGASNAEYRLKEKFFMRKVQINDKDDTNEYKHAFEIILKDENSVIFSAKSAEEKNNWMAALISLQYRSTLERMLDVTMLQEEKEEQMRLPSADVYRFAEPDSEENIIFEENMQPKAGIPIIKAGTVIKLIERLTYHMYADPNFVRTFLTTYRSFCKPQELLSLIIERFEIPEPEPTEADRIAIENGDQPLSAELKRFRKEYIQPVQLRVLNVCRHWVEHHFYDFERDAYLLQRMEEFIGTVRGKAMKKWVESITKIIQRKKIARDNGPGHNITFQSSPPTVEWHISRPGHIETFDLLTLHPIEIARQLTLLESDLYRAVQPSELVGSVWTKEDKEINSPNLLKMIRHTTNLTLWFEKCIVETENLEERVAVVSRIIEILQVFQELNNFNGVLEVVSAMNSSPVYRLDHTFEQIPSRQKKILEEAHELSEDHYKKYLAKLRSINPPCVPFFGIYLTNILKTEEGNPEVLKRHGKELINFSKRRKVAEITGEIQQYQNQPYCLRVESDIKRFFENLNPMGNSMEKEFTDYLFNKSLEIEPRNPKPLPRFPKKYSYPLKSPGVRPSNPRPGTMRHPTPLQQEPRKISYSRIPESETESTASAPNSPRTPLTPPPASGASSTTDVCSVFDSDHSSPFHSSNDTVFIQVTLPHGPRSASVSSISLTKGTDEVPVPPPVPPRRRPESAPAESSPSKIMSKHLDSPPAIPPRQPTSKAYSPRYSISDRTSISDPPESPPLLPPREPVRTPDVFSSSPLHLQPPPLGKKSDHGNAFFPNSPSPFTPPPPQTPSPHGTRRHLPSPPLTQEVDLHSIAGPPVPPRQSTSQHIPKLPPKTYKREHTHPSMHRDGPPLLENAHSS
Test: SOS1 degradation assay (Western blot) in SW-620 cells
Type: cell-based
Set-up: host or cells: NCI-H358, A-427, SW-620, DLD-1 (human cancer cell lines)
Settings: SW-620 (KRAS G12V), 24 h; for DC50: read-out: SW620 (G12V) DC50; for Dmax: read-out: SW620 (G12V) Dmax
Experimental: Test Example 2: SOS1 Degradation Assay
The degradation of SOS1 by the compounds was investigated on KRAS G12C mutant human non-small cell lung cancer cells NCI-H358 (ATCC or Stem Cell Bank, Chinese Academy of Sciences), KRAS G12D mutant human lung cancer cells A-427 (ATCC), KRAS G12V mutant human colorectal adenocarcinoma cells SW-620 (ATCC), and KRAS G13D mutant human colorectal adenocarcinoma epithelial cells DLD-1 (ATCC). The specific procedures were as follows:
0.95 mL of cells were seeded into each well of a 24-well cell culture plate to achieve a cell density of 5×10^5 cells/well; the cell plate was incubated in an incubator at 37° C. with 5% CO2 overnight. Then 50 μL of the compound solution after dilution was added to each of the wells with the corresponding cells, so that the final concentration of the compound was in a range of 0.03-3000 nM. The final concentration of DMSO was 0.25%.
After dosing, the cell plate was incubated in an incubator at 37° C. with 5% CO2 for 24 h. The cell culture medium in the 24-well plate was removed, and the plate was washed twice with 1×PBS. 180 μL of RIPA (strong) lysis buffer (Beyotime, P0013B) supplemented with 1 mM phenylmethylsulfonyl fluoride, a protease inhibitor mixture (Beyotime, P1008), and a protease phosphatase inhibitor mixture (Beyotime, P1045) was added to lyse adherent NCI-H358 cells at the bottom of the cell culture plate. After the plate was left to stand on ice for 30 min, the protein lysate in each well was transferred to a 1.5 mL centrifuge tube and centrifuged at 15000 g for 20 min at 4° C. […] The concentration of total protein in the cell lysate supernatant was determined using the BCA Protein Quantification Kit (Tiangen, PA115-02). […]
The concentration of total protein in the cell lysate was determined by BCA. […] After the blocking, the PVDF membrane was incubated with an SOS1 primary antibody (Abcam, ab140621) at 4° C. overnight, washed with a TBST buffer (2.4 g of Tris, 8.8 g of NaCl, 1.5 mL of Tween 20, with pH adjusted to 7.4, with the volume brought to 1 L) for 30 min (10 min/time), incubated with a secondary antibody (Abcam, ab205718) at room temperature for 2 h, washed with a TBST buffer for 30 min (10 min/time), and finally incubated with Clarity Western ECL Substrate (BIO-RAD, 170-5061) for 5 min for luminescence and color development, and a chemiluminescence imaging system (Clinx, ChemiScope 6200 Touch) was used for color development and protein mapping. […] The gray correction value for each sample was calculated by the formula: gray correction value=(gray value of target protein/gray value of corresponding internal reference)×103. Then the degradation rate was calculated by comparing the gray correction value with the gray correction value of the control group. […]

Compound | DC50 [nM] | Dmax [%]
COc1cc2nc(C)nc(N[C@H](C)c3cc(-c4c(Cl)cccc4CN(C)C)cs3)c2cc1[C@H]1CC[C@H](C(=O)N2CCN(CC3CCC4(CC3)CCN(C(=O)c3ccc(Cl)c(N5CCC(=O)NC5=O)c3)CC4)CC2)CC1 [Example 1, 1-(2-chloro-5-(9-((4-((1R,4R)-4-(4-(((R)-1-(4-(2-chloro-6-((dimethylamino)methyl)phenyl)thien-2-yl)ethyl)amino)-7-methoxy-2-methylquinazolin-6-yl)cyclohexane-1-carbonyl)piperazin-1-yl)methyl)-3-azaspiro[5.5]undecane-3-carbonyl)phenyl)dihydropyrimidine-2,4(1H,3H)-dione] | ≤ 50 | 80 to 100
COc1cc2nc(C)nc(N[C@H](C)c3cc(-c4c(Cl)cccc4CN(C)C)cs3)c2cc1[C@H]1CC[C@H](C(=O)N2CCC(CCOCC3CCN(C(=O)c4ccc(Cl)c(N5CCC(=O)NC5=O)c4)CC3)CC2)CC1 [Example 5, 1-(2-chloro-5-(4-((2-(1-((1R,4R)-4-(4-(((R)-1-(4-(2-chloro-6-((dimethylamino)methyl)phenyl)thien-2-yl)ethyl)amino)-7-methoxy-2-methylquinazolin-6-yl)cyclohexane-1-carbonyl)piperidin-4-yl)ethoxy)methyl)piperidine-1-carbonyl)phenyl)dihydropyrimidine-2,4(1H,3H)-dione] | ≤ 50 | 80 to 100
